Measured values published in ChEMBL document CHEMBL2331144, “Synthesis and anticancer activity of analogues of phenstatin, with a phenothiazine A-ring, as a new class of microtubule-targeting agents” (Bioorg Med Chem Lett, 2013).

What was measured:
MDA-MB-468 = assay: Growth inhibition of human MDA-MB-468 cells at 10 uM after 48 hrs by sulforhodamine B assay; assay type: functional; conditions: MDA-MB-468, 48 h, read-out: GI
T47D = assay: Growth inhibition of human T47D cells at 10 uM after 48 hrs by sulforhodamine B assay; assay type: functional; conditions: read-out: GI
MDA-MB-231 = assay: Growth inhibition of human MDA-MB-231 cells at 10 uM after 48 hrs by sulforhodamine B assay; assay type: functional; conditions: MDA-MB-231, 48 h, read-out: GI
MCF7 = assay: Growth inhibition of human MCF7 cells at 10 uM after 48 hrs by sulforhodamine B assay; assay type: functional; conditions: MCF7, 48 h, read-out: GI
SNB-75 = assay: Growth inhibition of human SNB75 cells at 10 uM after 48 hrs by sulforhodamine B assay; assay type: functional; conditions: SNB-75, 48 h, read-out: GI
SF-295 = assay: Growth inhibition of human SF295 cells at 10 uM after 48 hrs by sulforhodamine B assay; assay type: functional; conditions: SF-295, 48 h, read-out: GI
PC-3 = assay: Growth inhibition of human PC3 cells at 10 uM after 48 hrs by sulforhodamine B assay; assay type: functional; conditions: PC-3, 48 h, read-out: GI
786-0 = assay: Growth inhibition of human 786-0 cells at 10 uM after 48 hrs by sulforhodamine B assay; assay type: functional; conditions: 786-0, 48 h, read-out: GI
UO-31 = assay: Growth inhibition of human UO31 cells at 10 uM after 48 hrs by sulforhodamine B assay; assay type: functional; conditions: UO-31, 48 h, read-out: GI
CAKI-1 = assay: Growth inhibition of human CAKI-1 cells at 10 uM after 48 hrs by sulforhodamine B assay; assay type: functional; conditions: CAKI-1, 48 h, read-out: GI
RXF 393 = assay: Growth inhibition of human RXF393 cells at 10 uM after 48 hrs by sulforhodamine B assay; assay type: functional; conditions: RXF 393, 48 h, read-out: GI
A498 = assay: Growth inhibition of human A498 cells at 10 uM after 48 hrs by sulforhodamine B assay; assay type: functional; conditions: A498, 48 h, read-out: GI
[1] = Growth inhibition of human NCI-ADR-RES cells at 10 uM after 48 hrs by sulforhodamine B assay; assay type: functional; conditions: read-out: GI
OVCAR-4 = assay: Growth inhibition of human OVCAR4 cells at 10 uM after 48 hrs by sulforhodamine B assay; assay type: functional; conditions: OVCAR-4, 48 h, read-out: GI
SK-MEL-5 = assay: Growth inhibition of human SK-MEL-5 cells at 10 uM after 48 hrs by sulforhodamine B assay; assay type: functional; conditions: SK-MEL-5, 48 h, read-out: GI
Malme-3M = assay: Growth inhibition of human MALME-3M cells at 10 uM after 48 hrs by sulforhodamine B assay; assay type: functional; conditions: read-out: GI
LOX IMVI = assay: Growth inhibition of human LOXIMVI cells at 10 uM after 48 hrs by sulforhodamine B assay; assay type: functional; conditions: read-out: GI
UACC-62 = assay: Growth inhibition of human UACC62 cells at 10 uM after 48 hrs by sulforhodamine B assay; assay type: functional; conditions: UACC-62, 48 h, read-out: GI
KM12 = assay: Growth inhibition of human KM12 cells at 10 uM after 48 hrs by sulforhodamine B assay; assay type: functional; conditions: KM12, 48 h, read-out: GI
MDA-MB-435 = assay: Growth inhibition of human MDA-MB-435 cells at 10 uM after 48 hrs by sulforhodamine B assay; assay type: functional; conditions: MDA-MB-435, 48 h, read-out: GI
HCT-15 = assay: Growth inhibition of human HCT15 cells at 10 uM after 48 hrs by sulforhodamine B assay; assay type: functional; conditions: HCT-15, 48 h, read-out: GI
HCT-116 = assay: Growth inhibition of human HCT116 cells at 10 uM after 48 hrs by sulforhodamine B assay; assay type: functional; conditions: HCT-116, 48 h, read-out: GI
COLO 205 = assay: Growth inhibition of human COLO205 cells at 10 uM after 48 hrs by sulforhodamine B assay; assay type: functional; conditions: COLO 205, 48 h, read-out: GI
NCI-H522 = assay: Growth inhibition of human NCI-H522 cells at 10 uM after 48 hrs by sulforhodamine B assay; assay type: functional; conditions: NCI-H522, 48 h, read-out: GI
HOP-92 = assay: Growth inhibition of human HOP92 cells at 10 uM after 48 hrs by sulforhodamine B assay; assay type: functional; conditions: HOP-92, 48 h, read-out: GI
SR = assay: Growth inhibition of human SR cells at 10 uM after 48 hrs by sulforhodamine B assay; assay type: functional; conditions: read-out: GI
HOP-62 = assay: Growth inhibition of human HOP62 cells at 10 uM after 48 hrs by sulforhodamine B assay; assay type: functional; conditions: HOP-62, 48 h, read-out: GI
RPMI-8226 = assay: Growth inhibition of human RPMI8226 cells at 10 uM after 48 hrs by sulforhodamine B assay; assay type: functional; conditions: RPMI-8226, 48 h, read-out: GI
MOLT-4 = assay: Growth inhibition of human MOLT4 cells at 10 uM after 48 hrs by sulforhodamine B assay; assay type: functional; conditions: MOLT-4, 48 h, read-out: GI
K562 = assay: Growth inhibition of human K562 cells at 10 uM after 48 hrs by sulforhodamine B assay; assay type: functional; conditions: K562, 48 h, read-out: GI
HL-60(TB) = assay: Growth inhibition of human HL-60(TB) cells at 10 uM after 48 hrs by sulforhodamine B assay; assay type: functional; conditions: HL-60, 48 h, read-out: GI
CCRF-CEM = assay: Growth inhibition of human CCRF-CEM cells at 10 uM after 48 hrs by sulforhodamine B assay; assay type: functional; conditions: read-out: GI
Ovis aries = organism: Ovis aries; assay: Inhibition of sheep brain tubulin polymerization at 100 uM using DAPI by fluorimetry

## CC(=O)c1cn(C(=O)N2c3ccccc3Sc3ccccc32)c2ccccc12
MDA-MB-468
  inhibition of growth at 10 µM: 14%
T47D
  inhibition of growth at 10 µM: 25.1%
MDA-MB-231
  inhibition of growth at 10 µM: 0%
MCF7
  inhibition of growth at 10 µM: 0%
SNB-75
  inhibition of growth at 10 µM: 6%
SF-295
  inhibition of growth at 10 µM: 0.9%
PC-3
  inhibition of growth at 10 µM: 18.3%
786-0
  inhibition of growth at 10 µM: 6.7%
UO-31
  inhibition of growth at 10 µM: 24.2%
CAKI-1
  inhibition of growth at 10 µM: 14%
RXF 393
  inhibition of growth at 10 µM: 7%
A498
  inhibition of growth at 10 µM: 1.3%
[1]
  inhibition of growth at 10 µM: 4.9%
OVCAR-4
  inhibition of growth at 10 µM: 0%
SK-MEL-5
  inhibition of growth at 10 µM: 8.5%
Malme-3M
  inhibition of growth at 10 µM: 7.6%
LOX IMVI
  inhibition of growth at 10 µM: 9%
UACC-62
  inhibition of growth at 10 µM: 16%
KM12
  inhibition of growth at 10 µM: 6.6%
MDA-MB-435
  inhibition of growth at 10 µM: 3%
HCT-15
  inhibition of growth at 10 µM: 8.4%
HCT-116
  inhibition of growth at 10 µM: 6.8%
COLO 205
  inhibition of growth at 10 µM: 1.6%
NCI-H522
  inhibition of growth at 10 µM: 17%
HOP-92
  inhibition of growth at 10 µM: 24.9%
SR
  inhibition of growth at 10 µM: 31.4%
HOP-62
  inhibition of growth at 10 µM: 13.3%
RPMI-8226
  inhibition of growth at 10 µM: 35.5%
MOLT-4
  inhibition of growth at 10 µM: 16.9%
K562
  inhibition of growth at 10 µM: 26.2%
HL-60(TB)
  inhibition of growth at 10 µM: 16.5%
CCRF-CEM
  inhibition of growth at 10 µM: 7.2%

## O=C(c1cc2cc(F)ccc2[nH]1)N1c2ccccc2Sc2ccccc21
Ovis aries
  inhibition: 32%
MDA-MB-468
  inhibition of growth at 10 µM: 11.6%
T47D
  inhibition of growth at 10 µM: 10.1%
MDA-MB-231
  inhibition of growth at 10 µM: 23.8%
MCF7
  inhibition of growth at 10 µM: 3.4%
SNB-75
  inhibition of growth at 10 µM: 20.6%
SF-295
  inhibition of growth at 10 µM: 5.7%
PC-3
  inhibition of growth at 10 µM: 44.7%
786-0
  inhibition of growth at 10 µM: 11.2%
UO-31
  inhibition of growth at 10 µM: 21.6%
CAKI-1
  inhibition of growth at 10 µM: 17.3%
RXF 393
  inhibition of growth at 10 µM: 7.7%
A498
  inhibition of growth at 10 µM: 19.1%
[1]
  inhibition of growth at 10 µM: 15.6%
OVCAR-4
  inhibition of growth at 10 µM: 14.8%
SK-MEL-5
  inhibition of growth at 10 µM: 24.5%
Malme-3M
  inhibition of growth at 10 µM: 3.9%
LOX IMVI
  inhibition of growth at 10 µM: 33.6%
UACC-62
  inhibition of growth at 10 µM: 25.6%
KM12
  inhibition of growth at 10 µM: 1.7%
MDA-MB-435
  inhibition of growth at 10 µM: 3.2%
HCT-15
  inhibition of growth at 10 µM: 45.8%
HCT-116
  inhibition of growth at 10 µM: 46.1%
COLO 205
  inhibition of growth at 10 µM: 0%
NCI-H522
  inhibition of growth at 10 µM: 0%
HOP-92
  inhibition of growth at 10 µM: 4.2%
SR
  inhibition of growth at 10 µM: 56.9%
HOP-62
  inhibition of growth at 10 µM: 20.6%
RPMI-8226
  inhibition of growth at 10 µM: 5.8%
MOLT-4
  inhibition of growth at 10 µM: 31.8%
K562
  inhibition of growth at 10 µM: 34.6%
HL-60(TB)
  inhibition of growth at 10 µM: 1.3%
CCRF-CEM
  inhibition of growth at 10 µM: 10.1%
